Legend:
[1] = test system: carrageenan induced edema; assay: carrageenan induced edema of the rat hindpaw (plethysmometer); assay type: in vivo; details: for carrageenan induced edema, percentage increase in hindpaw volume: 10 mg/kg i.m.
Procedure: Male Sprague-Dawley rats (260-300 g for s.c. injected and 340-380 g for i.c.v. injected) were used (B&K Universal A B, Sollentuna, Sweden). The animals arrived at least one week before experiments and were housed three-four per cage (except animals provided with i.c.v. cannulas that were housed individually) with free access to food (R36, Ewos, Södertälje, Sweden) and water. The light schedule was a 12/12 h light/dark cycle, and ambient temperature was 20±2° C.
Oxytocin and the oxytocin antagonist (1-deamino-2-D-Tyr-(OEt)-4-Thr-8-Orn-oxytocin) (Ferring, Malmö, Sweden) were dissolved in physiological saline and injected in a volume of 1 ml/kg s.c. in the dorsal neck. Dexamethasone (Decadron®, Merck, Sharp & Dome, USA) was administered intramuscularly (i.m.). Oxytocin given i.c.v. was dissolved in a volume of 5 μl physiological saline and slowly injected over a period of 1 minute through the i.c.v. guide cannula via a 25 G stain-less-steel injection needle connected to a 10 μl Hamilton syringe via a polyethylene tube. Controls received saline in the same amounts.
The model of inflammation used, the carrageenan induced edema, is a commonly used model for studies of inflammation and for testing novel anti-inflammatory drugs (Winter C A, Risley E A, Nuss G W. Carrageenan-induced edema in hind paw of the rat as an assay for anti-inflammatory drugs. Proc Soc Exp Biol Med 1962; 111:544-7). To produce acute inflammation, carrageenan, 2 mg in 0.1 ml saline, was injected s.c. into the plantar region of the rat right hindpaw.
The rats were treated s.c. with oxytocin (1.0, 10, 100 or 1000 μg/kg (n=8 in each group) or saline (n=8+8) immediately before the carrageenan injection. The edema of the right hindpaw was measured (volume in ml) using a plethysmometer (Ugo Basile, type 7150, Florence, Italy) before treatment, half an hour after, one hour after, and then every hour up to 6 or 10 hours after treatment.
The results are presented as means±SD. Statistical analysis was performed by means of a 1-way ANOVA, followed by Fisher's test for post-hoc comparisons. In the analysis of myeloperoxidase accumulation, a Student's t-test was used. P-values of 0.05 or less were regarded as statistically significant.
The rats were treated s.c. with oxytocin (1000 μg/kg) and the oxytocin antagonist (1000 μg/kg) (the antagonist was given 30 minutes before oxytocin) (n=8), the oxytocin antagonist alone (1000 μg/kg) (n=8) or saline (n=8) immediately before the carrageenan injection. Measurements as in Example 1.
The rats were treated i.c.v. with oxytocin (1.0 μg/kg) (n=6) or saline (n=7) immediately before the carrageenan injection. Measurements as in Example 1. The animals were anaesthetised with sodiumpentobarbital (50 mg/kg) (Apoteksbolaget, Sweden) injected intraperitoneally (i.p.). The scull was uncovered, a hole was drilled in the right parietal bone and a guide cannula (21 G) was fixed stereotactically to the scull by means of acrylic dental cement. The coordinates were 1.00 mm posterior and 1.30 mm lateral to the bregma. […] The injection needles (25 G) reached 3.80 mm below the dura mater, with the tip of the needle in the right lateral ventricle. The animals were allowed one week of recovery after the operation. At the end of the experiment, the placement of the guide cannula was checked by injection of 2 μl of toluidine blue.
The rats were treated i.m. with dexamethasone (10 mg/kg) (n=6) or saline (n=6) immediately before the carrageenan injection. The edema of the right hindpaw was measured using the plethysmometer before treatment, and at 2, 4 and 6 hours after treatment.

[2] = test system: ischaemic musculocutaneous skin flaps; details: antagonist 1 mg/kg s.c.; previously shown by the inventors; cited from earlier work

Molecule	carrageenan induced edema, percentage increase in hindpaw volume ([1]; 2 hours, saline 48±10%, p<0.05) [%]	carrageenan induced edema, percentage increase in hindpaw volume ([1]; 4 hours, saline 78±12%, p<0.05) [%]	carrageenan induced edema, percentage increase in hindpaw volume ([1]; 6 hours, saline 105±11%, p<0.01) [%]	abolition of the oxytocin (1000 μg/kg s.c.) induced effect on carrageenan induced edema ([1]; antagonist 1000 μg/kg s.c. 30 minutes before oxytocin)	effect on carrageenan induced edema ([1]; antagonist 1000 μg/kg s.c. administered alone)	antagonism of the oxytocin (1 mg/kg s.c.) effect on skin flap survival [2]
C[C@@H]1C[C@H]2[C@@H]3CCC4=CC(=O)C=C[C@]4(C)[C@@]3(F)[C@@H](O)C[C@]2(C)[C@@]1(O)C(=O)CO [Dexamethasone]	35±9.3	54±14	71±15	–	–	–
1-deamino-2-D-Tyr-(OEt)-4-Thr-8-Orn-oxytocin [oxytocin antagonist]	–	–	–	did not abolish	did not induce any effect	abolished

Source: patent publication US20060234919A1, “Use” (priority 2001, published 2006)
